Values quoted from earlier work, collected in patent publication US20070243232A1, “Method to treat and prevent asthma attacks using throat lozenges and orally-retained liquids containing magnesium” (priority 2006, published 2007).

Conditions: injections in the 200 mg range

SMILES: O=S(=O)([O-])[O-].[Mg+2] [magnesium sulfate]
- efficacy in treating asthma and effecting a rescue: modestly effective
